In ChEMBL document CHEMBL1201862, “PubChem BioAssay data set” (2004):
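Interpolation was linear, between the two tested concentrations surrounding the appropriate level; five concentrations were tested over 48 hours in 96-well plates. The concentration for 50% growth inhibition is given as GI50.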 Calls of active or inactive are those of the source. No stated cut-off is given here; in the data, active = GI50 up to about 1.1 µM and inactive = higher.

Tests used:
Assay in all cases: inhibition of tumour cell growth, NCI panel, 48 h
OVCAR-4 = tested on: OVCAR-4
SNB-75 = tested on: SNB-75
PC-3 = tested on: PC-3
HCT-116 = tested on: HCT-116
OVCAR-3 = tested on: OVCAR-3
NCI-H23 = tested on: NCI-H23
K562 = tested on: K562
RPMI-8226 = tested on: RPMI-8226
HOP-62 = tested on: HOP-62
U-251 = tested on: U-251
KM12 = tested on: KM12
OVCAR-5 = tested on: OVCAR-5
MDA-MB-231 = tested on: MDA-MB-231
TK-10 = tested on: TK-10
HCC 2998 = tested on: HCC 2998
CCRF-CEM = tested on: CCRF-CEM
SF-268 = tested on: SF-268
SK-MEL-5 = tested on: SK-MEL-5
MDA-MB-435 = tested on: MDA-MB-435
MOLT-4 = tested on: MOLT-4

Measured: GI50

COC(=O)C(C)(C)[C@@H]1OC(=O)N(S(=O)(=O)c2c(C)cc(C)cc2C)[C@H]1C(C)C
inactive: OVCAR-4 98.2 µM | SNB-75 41 µM | PC-3 32.7 µM | HCT-116 52.8 µM | OVCAR-3 89.9 µM | NCI-H23 46.8 µM | K562 > 100 µM | RPMI-8226 > 100 µM | HOP-62 > 100 µM | U-251 > 100 µM | KM12 91.4 µM | OVCAR-5 > 100 µM | MDA-MB-231 > 100 µM | TK-10 > 100 µM | HCC 2998 > 100 µM | CCRF-CEM 75.9 µM | SF-268 > 100 µM | SK-MEL-5 41.8 µM | MDA-MB-435 > 100 µM | MOLT-4 40 µM

CC(C)(C)[C@H]1NC(=O)CN1C(=O)OCc1ccccc1
inactive: OVCAR-4 > 100 µM | SNB-75 > 100 µM | PC-3 36.7 µM | HCT-116 67.3 µM | NCI-H23 > 100 µM | K562 66.7 µM | RPMI-8226 87.7 µM | HOP-62 > 100 µM | U-251 82 µM | KM12 > 100 µM | OVCAR-5 > 100 µM | MDA-MB-231 35.5 µM | TK-10 > 100 µM | HCC 2998 > 100 µM | CCRF-CEM > 100 µM | SF-268 8.07 µM | SK-MEL-5 85.9 µM | MDA-MB-435 > 100 µM | MOLT-4 > 100 µM

CN(N=O)N1C(=O)SCC(c2ccccc2)(c2ccccc2)C1=O
inactive: SNB-75 25.6 µM | PC-3 42.4 µM | HCT-116 40.4 µM | OVCAR-3 37.6 µM | NCI-H23 > 100 µM | K562 65.2 µM | RPMI-8226 25.8 µM | HOP-62 65.9 µM | U-251 28.4 µM | KM12 30.1 µM | OVCAR-5 > 100 µM | MDA-MB-231 37.3 µM | TK-10 50.2 µM | HCC 2998 89.1 µM | CCRF-CEM 31.1 µM | SF-268 32.1 µM | SK-MEL-5 37.8 µM | MDA-MB-435 24.3 µM | MOLT-4 61.8 µM

Cc1ccc(C(=O)/C=C(\O)C(=O)NN=C(c2ccccc2)c2ccccc2)cc1
inactive: OVCAR-4 63.1 µM | SNB-75 82.4 µM | PC-3 40.2 µM | HCT-116 36.5 µM | OVCAR-3 > 100 µM | NCI-H23 > 100 µM | K562 17.3 µM | RPMI-8226 26.6 µM | U-251 46.2 µM | KM12 77.4 µM | OVCAR-5 > 100 µM | MDA-MB-231 > 100 µM | TK-10 > 100 µM | HCC 2998 80 µM | CCRF-CEM 29.2 µM | SF-268 > 100 µM | SK-MEL-5 53.1 µM | MDA-MB-435 > 100 µM | MOLT-4 58.9 µM

CCOc1cc(C2SCC(=O)N2c2ccc3c(c2)Oc2c(Cl)c4c(c(Cl)c2=N3)Oc2cc(N3C(=O)CSC3c3ccc(O)c(OCC)c3)ccc2N=4)ccc1O (stereo not drawn)
inactive: OVCAR-4 46.3 µM | SNB-75 21.4 µM | PC-3 48.6 µM | HCT-116 18 µM | OVCAR-3 26.3 µM | NCI-H23 21 µM | K562 27 µM | RPMI-8226 31.8 µM | HOP-62 31.6 µM | U-251 21 µM | KM12 40.9 µM | OVCAR-5 > 100 µM | MDA-MB-231 34.1 µM | TK-10 41.7 µM | HCC 2998 21.9 µM | SF-268 21.4 µM | SK-MEL-5 45.8 µM | MDA-MB-435 35.1 µM | MOLT-4 2.25 µM

CC(C)(C)OC(=O)N[C@H]1CCN(C2CCCCC2)C1=O
inactive: SNB-75 > 100 µM | PC-3 > 100 µM | HCT-116 > 100 µM | NCI-H23 > 100 µM | K562 > 100 µM | RPMI-8226 > 100 µM | HOP-62 > 100 µM | U-251 > 100 µM | OVCAR-5 > 100 µM | MDA-MB-231 > 100 µM | TK-10 > 100 µM | HCC 2998 > 100 µM | CCRF-CEM > 100 µM | SF-268 > 100 µM | SK-MEL-5 > 100 µM | MDA-MB-435 > 100 µM | MOLT-4 > 100 µM

CC(=N/NC(=S)N1CCCCC1)/C(=N\NC(=S)N1CCCCC1)c1ccccc1
inactive: OVCAR-4 1.85 µM | SNB-75 1.91 µM | PC-3 1.64 µM | HCT-116 2.53 µM | OVCAR-3 1.65 µM | NCI-H23 2.2 µM | K562 4.74 µM | RPMI-8226 3.36 µM | HOP-62 2.04 µM | U-251 1.68 µM | KM12 1.97 µM | OVCAR-5 2 µM | MDA-MB-231 2.7 µM | TK-10 1.74 µM | HCC 2998 2.3 µM | SF-268 1.79 µM | SK-MEL-5 1.96 µM | MDA-MB-435 2.08 µM | MOLT-4 6.19 µM

Cc1oc2c(Cl)cc(O)c(Cl)c2c2cccc1-2
inactive: OVCAR-4 12 µM | SNB-75 2.83 µM | PC-3 31.3 µM | HCT-116 16.6 µM | OVCAR-3 18.1 µM | NCI-H23 19.5 µM | K562 12.6 µM | RPMI-8226 10.4 µM | HOP-62 24.2 µM | U-251 18.9 µM | KM12 17.7 µM | OVCAR-5 45.5 µM | MDA-MB-231 33.6 µM | TK-10 > 100 µM | HCC 2998 > 100 µM | CCRF-CEM 14.1 µM | SF-268 34.9 µM | SK-MEL-5 19.4 µM | MDA-MB-435 20.1 µM

Cc1ccc(/C=N/Nc2ccccn2)s1
inactive: OVCAR-4 > 100 µM | SNB-75 36.7 µM | PC-3 > 100 µM | HCT-116 > 44.7 µM | OVCAR-3 > 55.7 µM | NCI-H23 > 100 µM | RPMI-8226 > 100 µM | HOP-62 > 100 µM | U-251 > 100 µM | KM12 > 100 µM | OVCAR-5 > 100 µM | MDA-MB-231 > 41.1 µM | TK-10 > 31.6 µM | HCC 2998 > 100 µM | CCRF-CEM > 100 µM | SF-268 > 64.6 µM | SK-MEL-5 > 100 µM | MDA-MB-435 > 100 µM | MOLT-4 > 100 µM

O=[N+]([O-])C(/C(Cl)=C(/Cl)N1CCOCC1)=C1\NCCO1
inactive: OVCAR-4 > 100 µM | SNB-75 > 100 µM | PC-3 > 100 µM | HCT-116 > 100 µM | OVCAR-3 > 100 µM | NCI-H23 > 100 µM | RPMI-8226 > 100 µM | HOP-62 > 100 µM | U-251 > 100 µM | KM12 > 100 µM | OVCAR-5 > 100 µM | MDA-MB-231 > 100 µM | HCC 2998 > 100 µM | CCRF-CEM > 100 µM | SF-268 > 100 µM | MDA-MB-435 > 100 µM | MOLT-4 > 100 µM

Cc1nn(C(=O)Cc2ccccc2)c2c1C(c1ccc(O)cc1O)SC(=N)N2 (stereo not drawn)
inactive: SNB-75 17.2 µM | PC-3 > 100 µM | HCT-116 > 100 µM | NCI-H23 > 100 µM | RPMI-8226 > 100 µM | HOP-62 > 100 µM | KM12 > 100 µM | MDA-MB-231 > 100 µM | TK-10 > 100 µM | HCC 2998 > 100 µM | CCRF-CEM > 100 µM | SF-268 > 100 µM | SK-MEL-5 > 100 µM | MDA-MB-435 > 100 µM | MOLT-4 > 100 µM

O=c1c2c(oc3ccccc13)-c1ccccc1OC2
inactive: SNB-75 16.7 µM | PC-3 > 100 µM | HCT-116 29.9 µM | OVCAR-3 > 100 µM | NCI-H23 59.7 µM | K562 > 100 µM | RPMI-8226 > 100 µM | HOP-62 88.9 µM | U-251 29 µM | KM12 > 100 µM | OVCAR-5 > 100 µM | MDA-MB-231 21.1 µM | TK-10 > 100 µM | HCC 2998 > 100 µM | CCRF-CEM > 100 µM | SF-268 57.9 µM | SK-MEL-5 44.8 µM | MDA-MB-435 > 100 µM | MOLT-4 > 100 µM

CSC1=N/C(=C\c2c[nH]c3ccccc23)C(=O)N1
inactive: OVCAR-4 71.4 µM | SNB-75 27.7 µM | PC-3 44.7 µM | HCT-116 70.3 µM | OVCAR-3 85.3 µM | NCI-H23 > 100 µM | K562 75.9 µM | RPMI-8226 77.4 µM | HOP-62 76.9 µM | U-251 56.4 µM | OVCAR-5 > 100 µM | MDA-MB-231 52.6 µM | TK-10 66.7 µM | HCC 2998 21.9 µM | CCRF-CEM > 100 µM | SF-268 71 µM | SK-MEL-5 39.4 µM | MDA-MB-435 55.2 µM | MOLT-4 > 100 µM

Nc1nc(-c2ccc3ccccc3c2)cc(-c2cc(-c3ccc4ccccc4c3)nc(N)n2)n1
inactive: OVCAR-4 > 100 µM | PC-3 > 100 µM | HCT-116 > 100 µM | OVCAR-3 > 100 µM | NCI-H23 > 100 µM | K562 > 100 µM | RPMI-8226 > 100 µM | HOP-62 > 100 µM | U-251 > 100 µM | KM12 > 100 µM | OVCAR-5 > 100 µM | MDA-MB-231 > 100 µM | TK-10 > 100 µM | HCC 2998 > 100 µM | CCRF-CEM > 100 µM | SF-268 > 100 µM | SK-MEL-5 > 100 µM | MDA-MB-435 > 100 µM | MOLT-4 > 100 µM

CCCCCCCCOCC1S(=O)(=O)OCCOS1(=O)=O
inactive: OVCAR-4 > 100 µM | SNB-75 > 100 µM | PC-3 > 100 µM | HCT-116 > 100 µM | OVCAR-3 > 100 µM | NCI-H23 > 100 µM | K562 > 100 µM | RPMI-8226 > 100 µM | HOP-62 > 100 µM | U-251 > 100 µM | OVCAR-5 > 100 µM | MDA-MB-231 > 100 µM | TK-10 > 100 µM | HCC 2998 > 100 µM | CCRF-CEM > 100 µM | SF-268 > 100 µM | SK-MEL-5 > 100 µM | MDA-MB-435 > 100 µM | MOLT-4 > 100 µM
